Source: patent US20120142730A1 (priority 2010, published 2012)

Test system: subjects with relapsing remitting multiple sclerosis (RRMS)
Assay: ALLEGRO phase III trial: patient-reported fatigue (MFIS), SF-36 and EQ5D
Assay type: in vivo, human
Method: Eligible subjects were equally randomized 1:1 into one of the following treatment arms: • 1. […] 21, 2007 (see, page 10, line 5 to page 11, line 3). • 2. Matching placebo for laquinimod arm: one capsule is administered once daily. The following assessments were performed at specified time points: • 1. Vital signs were measured at each study visit. • 2. A physical examination is performed at months −1 (screening), (baseline) 1, 3, 6, 12, 18 and 24 (termination/early discontinuation core study). In case of the 6 months extended study, additional examination was performed at month 30 (termination/early discontinuation of extended study). • 3. The following safety clinical laboratory tests were performed: • a. Complete blood count (CBC) with differential—at all scheduled visits. A reticulocyte count was added to the CBC at months 0 (baseline) and 24/30 (termination/early discontinuation). • b. Serum chemistry (including electrolytes, liver enzymes, direct and total bilirubin and pancreatic amylase and CPK), and urinalysis—at all scheduled visits. • c. A rapid urine β-hCG test was performed in women of child-bearing potential at baseline (month 0) and at each scheduled study visit thereafter (at site). • d. β-hCG in women of child-bearing potential was performed at all scheduled visits. • e. Starting after visit Month 3 a rapid urine β-hCG test was performed in women of child-bearing potential every 28 (±2) days. The subject was contacted by telephone within 72 hours after the test was scheduled to be performed and asked specific questions regarding the test. In case of suspected pregnancy (positive urine β-hCG test result), the caller made sure that the study drug has been discontinued and the subject was instructed to arrive at the site as soon as possible with all study drugs. • 4. Markers of inflammation (serum conventional C-reactive protein and fibrinogen)—at screening, baseline and all scheduled visits thereafter. • 5. During the first 3 months periodical phone calls were placed by the site personnel every two weeks. […] ECG was performed at months −1 (screening; additional recording, up to 30 minutes apart is performed if QTc is […] 450 msec), (baseline; three recordings, 15 minutes apart), 1, 2, 3, 6, 12, 18 and 24 (termination/early discontinuation). In case of the 6 months extended study, ECG is performed at month 30 (termination/early discontinuation of the extended study). • 7. Chest X-ray is performed at months −1 (screening), (if not performed within 7 months prior to the screening visit). • 8. Adverse Events (AEs) are monitored throughout the study. • 9. Concomitant medications are monitored throughout the study. • 10. Neurological evaluations, including Expanded Disability Status Scale (EDSS), 25 foot walk test/Ambulation Index (AI), Functional systems (FS) are performed at months −1 (screening), (baseline) and every 3 months during the study and the extended study period. • 11. MS functional Composite (MSFC) was assessed at months −1 (screening) (three practices for training purposes only), at month 0 (baseline), 6, 12, 18 and 24 (termination/early discontinuation). In case of the 6 months extended study, the last MSFC was performed at months 30 (termination/early discontinuation of the extended study). • 12. Subject-reported fatigue was assessed by the Modified Fatigue Impact Scale (MFIS) at months 0, 6, 12, 18, and 24 (termination/early discontinuation). In case of the 6 months extended study, additional MFIS was performed at month 30 (termination/early discontinuation of the extended study). • 13. The general health status was assessed by the EuroQoL (EQ5D) questionnaire at month 0 (baseline) and month 24 (termination/early discontinuation of the study). In case of the 6 months extended study, the last EuroQoL (EQ5D) was performed at month 30 (termination/early discontinuation of the extended study) instead of month 24. • 14. […]

[1] = 0.6 mg daily oral, listed as laquinimod

For `CCN(C(=O)c1c(O)c2c(Cl)cccc2n(C)c1=O)c1ccccc1` [Laquinimod, laquinimod], the “EQ-5D dimensions, health status at Month 24, words” value (0.6 mg daily oral) was 0.6 mg maintained their health status at Month 24 while those treated with placebo reported a, the “MFIS (Modified Fatigue Impact Scale) adjusted mean score at 24 months” value (0.6 mg daily oral) was 31.9 and the “SF36 Mental component summary, treatment effect” value (0.6 mg daily oral vs placebo) was 1.848. For the same molecule, the MFIS treatment effect (0.6 mg daily oral vs placebo, month 24, p=0.004) was −2.53, the “EQ5D, effect” value (0.6 mg daily oral vs placebo, p 0.0267) was −2.366 and the “SF36 Physical component summary, effect” value (0.6 mg daily oral vs placebo, p 0.1354) was 0.65. For the same molecule, the “SF36 Mental component summary, treatment effect” value (0.6 mg daily oral vs placebo, listed as laquinimod) was 1.68, the “EQ5D General Health Status by the Euroqol Questionnaire” value (0.6 mg daily oral, month 24) was 71.0 and the “SF36 - SFMHD Mental component summary” value (0.6 mg daily oral, month 24) was −0.47. The “SF36 - SFPHD Physical component summary” value (0.6 mg daily oral, month 24) was −0.519, the “MFIS (Modified Fatigue Impact Scale) adjusted mean score at 24 months” value [1] was 31.9 (0.71) and the “SF-36 PCS score over 24 months, words” value [1] was “The PCS score at Month 24 for those treated with laquinimod 0.6 mg remained stable while the”. The “Functional disability due to fatigue (MFIS), words” value (0.6 mg vs placebo at Month 24) was “average, associated with less functional disability due to fatigue than placebo at Month 24”, the “Change in adjusted mean MFIS psychosocial subscale score from baseline” value (at 12 months, p=0.02) was “significant improvement” and the “Change in adjusted mean MFIS physical subscale score from baseline” value (at 24 months, p=0.02) was “significant improvement”. The “Change in adjusted mean MFIS cognitive subscale score from baseline” value (at 24 months, p=0.05) was “significant improvement”, the “SF-36 PCS subscale role physical” value (over 24 months vs placebo, p=0.010) was “showed improvement” and the “SF-36 PCS subscale physical functioning” value (over 24 months vs placebo, p=0.016) was “showed improvement”. The “SF-36 PCS difference from placebo, words” value (over 24 months, p=0.13) was “did not reach statistical significance”, the “EQ-5D Anxiety or Depression, effect” value (vs placebo, Month 24, p 0.0113) was 1.425 and the “EQ-5D Mobility, effect” value (vs placebo, Month 24, p 0.0181) was 1.497. The “EQ-5D Self care, effect” value (vs placebo, Month 24, p 0.0337) was 2.251, the “EQ-5D Usual activities, effect” value (vs placebo, Month 24, p 0.4051) was 1.129 and the “EQ-5D Pain discomfort, effect” value (vs placebo, Month 24, p 0.8024) was 1.036.
